This assay concerns MC38 cells. Briefly: mGI-101 and DMXAA in MC38 allotransplanted tumor model. It counts as in vivo, C57BL/6 mice. To be noted: day 60 after tumor injection; mGI-101 6 mg/kg i.p. BIW, DMXAA 450 μg I.T.; 5 mice per group. On the procedure:
In order to establish an allotransplanted tumor model, 5×10^5 of MC38 cells were subcutaneously injected into C57BL/6 mice. The tumor grafts of the mice were identified to be a size of 100-200 mm^3 about day 10 after cell inoculation, and the mice were assigned, each group including 5 mice.
The size of the MC38 solid cancer was measured three times a week during the observation period, and the major axis (maximum length, L) and minor axis (perpendicular width, W) of the tumor were measured using a caliper, and the tumor volume (TV) was calculated by substituting them into the following equation, and once the tumor size was no less than 2 cm, the mice were sacrificed. TV (mm^3)=(W^2×L)/2 [Equation 1]

Compound `Cc1ccc2c(=O)c3cccc(CC(=O)O)c3oc2c1C` [DMXAA, reference compound] showed a survival rate of 60%.

(Values after patent US11857601B2, “Pharmaceutical composition for cancer treatment comprising fusion protein including IL-2 protein and CD80 protein and anticancer drug” (GI INNOVATION, INC., priority 2020, dated 2024).)
